From paper PMC10026756
Read-outs that look alike come from different tables or passages of the source.

Assays:
[1] = tested on: HCT-116 colon cancer cell line; assay: MTT assay, in vitro cytotoxicity against HCT-116; format: cell-based; details: read-out: IC50, in vitro cytotoxicity against HCT116 cell line
Description: The target compounds were evaluated for their anticancer activity against HCT-116 colon cancer cell line in which both c-Met and VEGFR-2 are overexpressed.[54]^,[55] […] The half maximal inhibitory concentration (IC50) was calculated for each compound (Table 1).
(§1) To scrutinise the cytotoxicity of the target compounds on colorectal cancer and normal cells, MTT assay was carried out against HCT-116 and WI38 cell lines, respectively.

HCT-116 cells = assay: Apoptosis assay, Annexin V-FITC/PI staining; format: cell-based; details: HCT-116, treated at IC50 concentration, 24 h
Description: Compared to the control group, the number of both early and late apoptotic cells of target compounds 4b and 4e was increased.
(§2) The effects of both 4b and 4e on progress of cell cycle and induction of apoptosis in […] cells were carried out using Annexin V-FITC Apoptosis Detection Kit (BioVision Research Products, Mountain View, CA) (see Supplementary Data)[8].

[2] = tested on: HCT-116 colon cancer cell line; assay: Cell cycle analysis; format: cell-based; details: HCT-116, treated at IC50 concentration, 24 h
Description: Aiming to further study the mechanism of the target compounds, the cell cycle arrest experiment of 4b and 4e blocking the cell cycle of HCT-116 was carried out using Annexin V-FITC/PI staining (Table 4 and Figure 8).[56]
as §2

[3] = MTT assay, in vitro toxicity against normal cells; format: cell-based; details: human, WI38 normal cells; MTT assay, WI38; read-out: IC50, in vitro cytotoxicity against WI38 normal cell line
Description: (§3) To scrutinise the safety of target compounds on normal cells, compounds 4b and 4e were selected to evaluate their cytotoxic activity against WI38 normal cell line (Table 2).
as §1

c-Met = c-Met (Homo sapiens, UniProt P08581); assay: In vitro c-Met tyrosine kinase inhibition assay
c-Met, sequence (P08581 25-1390): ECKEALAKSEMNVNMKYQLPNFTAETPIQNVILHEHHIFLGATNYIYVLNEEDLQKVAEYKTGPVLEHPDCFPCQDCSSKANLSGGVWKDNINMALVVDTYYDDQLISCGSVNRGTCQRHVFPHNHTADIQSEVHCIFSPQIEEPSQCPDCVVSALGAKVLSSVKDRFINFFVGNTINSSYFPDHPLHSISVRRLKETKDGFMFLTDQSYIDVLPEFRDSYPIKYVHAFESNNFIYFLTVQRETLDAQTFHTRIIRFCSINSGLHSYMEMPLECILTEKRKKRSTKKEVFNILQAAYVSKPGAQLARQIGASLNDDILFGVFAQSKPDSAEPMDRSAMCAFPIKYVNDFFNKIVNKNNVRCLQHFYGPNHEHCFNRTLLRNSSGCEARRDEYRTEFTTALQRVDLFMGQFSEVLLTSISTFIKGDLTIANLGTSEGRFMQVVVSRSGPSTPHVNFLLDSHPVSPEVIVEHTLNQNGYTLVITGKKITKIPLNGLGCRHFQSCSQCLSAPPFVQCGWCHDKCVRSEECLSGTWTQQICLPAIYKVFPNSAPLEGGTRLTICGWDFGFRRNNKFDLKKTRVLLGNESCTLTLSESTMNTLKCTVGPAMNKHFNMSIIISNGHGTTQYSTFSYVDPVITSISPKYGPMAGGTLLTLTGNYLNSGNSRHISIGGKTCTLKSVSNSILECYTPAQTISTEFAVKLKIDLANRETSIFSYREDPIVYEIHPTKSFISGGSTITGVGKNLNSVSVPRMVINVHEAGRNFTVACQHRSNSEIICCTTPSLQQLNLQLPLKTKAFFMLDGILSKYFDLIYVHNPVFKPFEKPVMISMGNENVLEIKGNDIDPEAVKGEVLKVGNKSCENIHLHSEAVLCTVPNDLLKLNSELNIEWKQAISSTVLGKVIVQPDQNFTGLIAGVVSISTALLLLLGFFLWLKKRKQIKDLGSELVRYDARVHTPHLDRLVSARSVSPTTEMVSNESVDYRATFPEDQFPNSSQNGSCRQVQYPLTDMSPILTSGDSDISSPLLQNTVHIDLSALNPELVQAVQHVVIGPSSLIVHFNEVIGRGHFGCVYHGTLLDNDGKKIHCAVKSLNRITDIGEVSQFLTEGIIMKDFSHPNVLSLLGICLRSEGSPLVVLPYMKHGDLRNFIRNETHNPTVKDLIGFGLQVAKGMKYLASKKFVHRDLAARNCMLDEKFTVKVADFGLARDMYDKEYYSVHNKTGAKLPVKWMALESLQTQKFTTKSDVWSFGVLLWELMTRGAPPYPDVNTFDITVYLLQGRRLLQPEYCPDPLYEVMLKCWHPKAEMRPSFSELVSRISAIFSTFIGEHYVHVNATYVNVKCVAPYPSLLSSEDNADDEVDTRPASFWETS

VEGFR-2 = VEGFR-2 (Homo sapiens, UniProt P35968); assay: In vitro VEGFR-2 tyrosine kinase inhibition assay (BPS KDR Assay Kit)
VEGFR-2, sequence (P35968 20-1356): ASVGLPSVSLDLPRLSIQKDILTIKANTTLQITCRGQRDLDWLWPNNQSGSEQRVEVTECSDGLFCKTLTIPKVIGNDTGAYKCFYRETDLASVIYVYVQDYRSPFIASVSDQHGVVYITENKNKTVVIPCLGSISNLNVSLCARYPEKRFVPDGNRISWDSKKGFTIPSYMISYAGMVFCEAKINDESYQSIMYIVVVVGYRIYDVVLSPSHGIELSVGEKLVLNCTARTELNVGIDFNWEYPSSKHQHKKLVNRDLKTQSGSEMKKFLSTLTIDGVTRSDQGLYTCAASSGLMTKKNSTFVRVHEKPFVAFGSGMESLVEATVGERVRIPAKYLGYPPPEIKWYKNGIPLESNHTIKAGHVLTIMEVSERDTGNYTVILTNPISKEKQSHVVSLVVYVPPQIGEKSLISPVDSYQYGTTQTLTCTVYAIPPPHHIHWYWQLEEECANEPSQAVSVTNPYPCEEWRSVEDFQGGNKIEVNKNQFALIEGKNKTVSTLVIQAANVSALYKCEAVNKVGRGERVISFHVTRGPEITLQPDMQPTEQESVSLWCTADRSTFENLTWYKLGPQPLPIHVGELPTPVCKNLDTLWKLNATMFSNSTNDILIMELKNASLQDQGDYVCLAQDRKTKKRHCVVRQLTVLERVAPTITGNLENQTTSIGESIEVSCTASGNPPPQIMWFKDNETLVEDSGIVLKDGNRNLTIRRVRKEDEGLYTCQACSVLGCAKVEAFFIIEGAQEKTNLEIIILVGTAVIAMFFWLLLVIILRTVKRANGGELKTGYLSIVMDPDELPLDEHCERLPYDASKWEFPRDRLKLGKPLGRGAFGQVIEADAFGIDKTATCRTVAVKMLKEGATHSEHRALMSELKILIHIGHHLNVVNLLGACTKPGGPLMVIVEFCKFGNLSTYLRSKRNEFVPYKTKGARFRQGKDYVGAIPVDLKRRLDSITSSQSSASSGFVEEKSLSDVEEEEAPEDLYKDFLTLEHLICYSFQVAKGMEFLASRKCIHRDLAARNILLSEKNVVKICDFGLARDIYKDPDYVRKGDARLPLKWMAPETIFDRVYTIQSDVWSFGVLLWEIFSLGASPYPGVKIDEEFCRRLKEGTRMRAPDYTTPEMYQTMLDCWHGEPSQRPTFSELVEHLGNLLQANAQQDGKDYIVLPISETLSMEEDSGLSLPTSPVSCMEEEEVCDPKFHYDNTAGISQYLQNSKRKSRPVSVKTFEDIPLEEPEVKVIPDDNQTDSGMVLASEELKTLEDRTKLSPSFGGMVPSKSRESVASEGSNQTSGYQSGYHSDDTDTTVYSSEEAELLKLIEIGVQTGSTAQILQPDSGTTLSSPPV

WI38 normal cell line = assay: MTT assay, in vitro toxicity against normal cells; format: cell-based; details: HCT-116 versus WI38
Description: as §3, §1

[4] = Homo sapiens, HCT-116, MTT assay

SMILES | melting point | IC50 (c-Met) | c-Met %inh (c-Met; conc 0.01 (unit not given)) | c-Met %inh (c-Met; conc 0.1 (unit not given)) | c-Met %inh (c-Met; conc 1 (unit not given)) | c-Met %inh (c-Met; conc 10 (unit not given)) | IC50 (VEGFR-2) | VEGFR-2 %inh (VEGFR-2; conc 0.01 (unit not given)) | VEGFR-2 %inh (VEGFR-2; conc 0.1 (unit not given)) | VEGFR-2 %inh (VEGFR-2; conc 1 (unit not given)) | VEGFR-2 %inh (VEGFR-2; conc 10 (unit not given)) | IC50 [1, 4] | other results
COc1cc2nccc(Oc3ccc(NC(=O)C4(C(=O)Nc5ccc(F)cc5)CC4)cc3)c2cc1OC [Cabozantinib, reference compound] | – | – | – | – | – | – | – | – | – | – | – | 16.4 ± 0.86 µM | %Necrosis (HCT-116 cells): 3.63%; Apoptosis %Early (HCT-116 cells): 12.52%; Apoptosis %Late (HCT-116 cells): 19.61%; Apoptosis %Total (HCT-116 cells): 32.13%; %G0–G1 [2]: 43.12%; %G2/M [2]: 24.72%; %S [2]: 32.16%; IC50 [3]: 44.7 ± 2.65 µM
O=C(Cn1c(=O)[nH]c2ccccc2c1=O)Nc1ccccc1 [Compound 2a, 2-(2,4-Dioxo-1,4-dihydroquinazolin-3(2H)-yl)-N-phenylacetamide] | – | – | – | – | – | – | – | – | – | – | – | 15.1 ± 0.8 µM | –
O=C(Cn1c(=O)[nH]c2ccccc2c1=O)NCc1ccccc1 [Compound 2b, N-Benzyl-2-(2,4-dioxo-1,4-dihydroquinazolin-3(2H)-yl)acetamide] | 298 to 299 °C | – | – | – | – | – | – | – | – | – | – | 16 ± 0.85 µM | –
O=C(Cn1c(=O)[nH]c2ccccc2c1=O)NC1CCCCC1 [Compound 2c, N-Cyclohexyl-2-(2,4-dioxo-1,4-dihydroquinazolin-3(2H)-yl)acetamide] | – | 0.084 ± 0.004 µM | 27.36% | 55.94% | 73.28% | 92.28% | 0.052 ± 0.002 µM | 35.32% | 56.18% | 76.46% | 88.96% | 4.69 ± 0.25 µM | –
CN(C)C(=O)Cn1c(=O)[nH]c2ccccc2c1=O [Compound 2d, 2-(2,4-Dioxo-1,4-dihydroquinazolin-3(2H)-yl)-N,N-dimethylacetamide] | 218 to 220 °C | – | – | – | – | – | – | – | – | – | – | 47.5 ± 2.51 µM | –
O=C(Cn1c(=O)[nH]c2ccccc2c1=O)N1CCCCC1 [Compound 2e, 3-(2-Oxo-2-(piperidin-1-yl)ethyl)quinazoline-2,4(1H,3H)-dione] | 204 °C | – | – | – | – | – | – | – | – | – | – | 38 ± 2.01 µM | –
O=C(Cn1c(=O)[nH]c2ccccc2c1=O)N1CCOCC1 [Compound 2f, 3-(2-Morpholino-2-oxoethyl)quinazoline-2,4(1H,3H)-dione] | 254 to 255 °C | 0.161 ± 0.007 µM | 22.84% | 44.08% | 70.59% | 88.98% | 0.21 ± 0.009 µM | 18.54% | 43.39% | 68.26% | 85.96% | 5.4 ± 0.29 µM | –
CCOC(=O)CNC(=O)Cn1c(=O)[nH]c2ccccc2c1=O [Compound 2g, Ethyl [2-(2,4-dioxo-1,4-dihydroquinazolin-3(2H)-yl)acetyl]glycinate] | – | – | – | – | – | – | – | – | – | – | – | 12.5 ± 0.66 µM | –
O=C(Cn1c(=O)[nH]c2ccccc2c1=O)NCC(=O)N/N=C/c1ccco1 [Compound 4d, (E)-2-(2,4-Dioxo-1,4-dihydroquinazolin-3(2H)-yl)-N-[2-(2-[furan-2-ylmethylene]hydrazineyl)-2-oxoethyl]acetamide] | – | – | – | – | – | – | – | – | – | – | – | 10.8 ± 0.57 µM | –
O=C(Cn1c(=O)[nH]c2ccccc2c1=O)NCC(=O)N/N=C1\C(=O)Nc2ccccc21 [Compound 4f, (Z)-2-[2,4-Dioxo-1,4-dihydroquinazolin-3(2H)-yl]-N-[2-oxo-2-(2-(2-oxoindolin-3-ylidene)hydrazineyl)ethyl]acetamide] | – | – | – | – | – | – | – | – | – | – | – | 44.1 ± 2.33 µM | –
O=C(Cn1c(=O)[nH]c2ccccc2c1=O)NCc1n[nH]c(=S)n1-c1ccccc1 [Compound 4j, 2-(2,4-Dioxo-1,4-dihydroquinazolin-3(2H)-yl)-N-[(4-phenyl-5-thioxo-4,5-dihydro-1H-1,2,4-triazol-3-yl)methyl]acetamide] | – | – | – | – | – | – | – | – | – | – | – | 18.9 ± 1 µM | –

More lines, main results first:

melting point | IC50 (c-Met) | c-Met %inh (c-Met; conc 0.01 (unit not given)) | c-Met %inh (c-Met; conc 0.1 (unit not given)) | c-Met %inh (c-Met; conc 1 (unit not given)) | c-Met %inh (c-Met; conc 10 (unit not given)) | IC50 (VEGFR-2) | VEGFR-2 %inh (VEGFR-2; conc 0.01 (unit not given)) | VEGFR-2 %inh (VEGFR-2; conc 0.1 (unit not given)) | VEGFR-2 %inh (VEGFR-2; conc 1 (unit not given)) | VEGFR-2 %inh (VEGFR-2; conc 10 (unit not given)) | SMILES | IC50 [1, 4] | other results
296 to 298 °C | – | – | – | – | – | – | – | – | – | – | NNC(=O)CNC(=O)Cn1c(=O)[nH]c2ccccc2c1=O [Compound 3, 2-(2,4-Dioxo-1,4-dihydroquinazolin-3(2H)-yl)-N-(2-hydrazineyl-2-oxo-ethyl)acetamide] | 24.3 ± 1.28 µM | –
325 °C | – | – | – | – | – | – | – | – | – | – | O=C(Cn1c(=O)[nH]c2ccccc2c1=O)NCC(=O)N/N=C/c1ccccc1 [Compound 4a, (E)-N-[2-(2-Benzylidenehydrazineyl)-2-oxoethyl]-2-(2,4-dioxo-1,4-dihy-droquinazolin-3(2H)-yl)acetamide] | 36.9 ± 1.95 µM | –
– | 0.063 ± 0.003 µM | 27.49% | 58.65% | 82.51% | 93.15% | 0.035 ± 0.002 µM | 38.24% | 60.12% | 78.48% | 90.09% | O=C(Cn1c(=O)[nH]c2ccccc2c1=O)NCC(=O)N/N=C/c1ccc([N+](=O)[O-])cc1 [Compound 4b, (E)-2-(2,4-Dioxo-1,4-dihydroquinazolin-3(2H)-yl)-N-[2-(2-[4-nitrobenz-ylidene]hydrazineyl)-2-oxoethyl]acetamide] | < 1 µM | IC50 ([1]; MTT assay): 0.734 ± 0.04 µM; %Necrosis (HCT-116 cells): 4.53%; Apoptosis %Early (HCT-116 cells): 15.28%; Apoptosis %Late (HCT-116 cells): 26.41%; Apoptosis %Total (HCT-116 cells): 41.69%; %G0–G1 [2]: 39.59%; %G2/M [2]: 9.34%; %S [2]: 51.07%; cytotoxic activity against HCT-116 colon cancer cells, times more than WI38 normal cells (WI38 normal cell line): 25 times; IC50 [3]: 18.4 ± 1.09 µM
290 to 292 °C | – | – | – | – | – | – | – | – | – | – | COc1ccc(/C=N/NC(=O)CNC(=O)Cn2c(=O)[nH]c3ccccc3c2=O)cc1 [Compound 4c, (E)-2-(2,4-Dioxo-1,4-dihydroquinazolin-3(2H)-yl)-N-[2-(2-[4-methoxy-benzylidene]hydrazineyl)-2-oxoethyl]acetamide] | 31.8 ± 1.68 µM | –
– | 0.069 ± 0.003 µM | 28.94% | 55.05% | 80.41% | 92.94% | 0.082 ± 0.004 µM | 33.05% | 50.29% | 73.09% | 86.83% | O=C(Cn1c(=O)[nH]c2ccccc2c1=O)NCC(=O)NN=C1CCCCC1 [Compound 4e, N-[2-(2-Cyclohexylidenehydrazineyl)-2-oxoethyl]-2-(2,4-dioxo-1,4-dihydroquinazolin-3(2H)-yl)acetamide] | 1.41 ± 0.07 µM | %Necrosis (HCT-116 cells): 2.28%; Apoptosis %Early (HCT-116 cells): 26.76%; Apoptosis %Late (HCT-116 cells): 12.02%; Apoptosis %Total (HCT-116 cells): 38.78%; %G0–G1 [2]: 44.60%; %G2/M [2]: 8.51%; %S [2]: 46.89%; cytotoxic activity against HCT-116 colon cancer cells, times more than WI38 normal cells (WI38 normal cell line): 7.5 times; IC50 [3]: 10.6 ± 0.62 µM
284 to 286 °C | 0.271 ± 0.012 µM | 20.56% | 34.11% | 65.69% | 85.71% | 0.103 ± 0.005 µM | 27.96% | 52.07% | 70.58% | 88.15% | Cc1cc(C)n(C(=O)CNC(=O)Cn2c(=O)[nH]c3ccccc3c2=O)n1 [Compound 4g, N-[2-(3,5-Dimethyl-1H-pyrazol-1-yl)-2-oxoethyl]-2-(2,4-dioxo-1,4-dihyd-roquinazolin-3(2H)-yl)acetamide] | 3.7 ± 0.2 µM | –
– | 0.245 ± 0.011 µM | 17.87% | 35.84% | 70.09% | 86.83% | 0.297 ± 0.013 µM | 18.58% | 40.45% | 60.74% | 82.49% | O=C(Cn1c(=O)[nH]c2ccccc2c1=O)NCc1n[nH]c(=S)o1 [Compound 4h, 2-(2,4-Dioxo-1,4-dihydroquinazolin-3(2H)-yl)-N-[(5-thioxo-4,5-dihydro-1,3,4-oxadiazol-2-yl)methyl]acetamide] | 6.99 ± 0.37 µM | –
287 to 290 °C | – | – | – | – | – | – | – | – | – | – | O=C(Cn1c(=O)[nH]c2ccccc2c1=O)NCC(=O)NNC(=S)Nc1ccccc1 [Compound 4i, 2-(2,4-Dioxo-1,4-dihydroquinazolin-3(2H)-yl)-N-[2-oxo-2-(2-[phenylcar-bamothioyl]hydrazineyl)ethyl]acetamide] | 9.2 ± 0.49 µM | –
